Measurements as given in patent publication US11207291B2, “Antimicrobial compositions comprising cannabinoids and methods of using the same” (Graphium Biosciences, Inc., priority 2017, dated 2021).
Converted amounts (≈) assume the structure as drawn. Read-outs that look alike come from different tables or passages of the source.

How the values were obtained:
Candida parapsilosis [1] = settings: ATCC 22019, Example 1 table, cited from earlier work
Aspergillus fumigatus [2] = experiment: Broth microdilution MIC, fungi (Example 4); type: cell-based; settings: Example 4, isolate MMX 5280 (MYA-3626)
Aspergillus fumigatus [3] = settings: ATCC MYA-3626; 48 hr; Example 1 table; cited from earlier work
Candida parapsilosis [4] = experiment: Broth microdilution MIC, fungi (Example 4); type: cell-based; settings: Example 4, isolate MMX 2323 (ATCC 22019)
Aspergillus fumigatus [5] = settings: MYA-3626; 48 hr; Example 4 table; cited from earlier work
Candida parapsilosis [6] = settings: ATCC 22019, Example 4 table, cited from earlier work
Aspergillus fumigatus [7] = experiment: Broth microdilution MIC, yeast and fungi (Example 1); type: cell-based; settings: isolate MMX 5280 (ATCC MYA-3626)
Candida parapsilosis [8] = experiment: as above; type: cell-based; settings: Example 1, isolate MMX 2323 (ATCC 22019)

SMILES: C[C@@H]1[C@H](O)[C@@H](C)/C=C/C=C/C=C/C=C/C=C/C=C/C=C/[C@H](O[C@@H]2O[C@H](C)[C@@H](O)[C@H](N)[C@@H]2O)C[C@@H]2O[C@](O)(C[C@@H](O)C[C@@H](O)[C@H](O)CC[C@@H](O)C[C@@H](O)CC(=O)O[C@H]1C)C[C@H](O)[C@H]2C(=O)O [Amphotericin B]
- CLSI QC range (MIC) (Candida parapsilosis [1]; 24 hr): 0.5 to 2 µg/mL
- CLSI QC range (MIC) (Candida parapsilosis [1]; 48 hr): 0.25 to 4 µg/mL
- MIC at 24 hr (Aspergillus fumigatus [2]; 24 hr): 0.25 µg/mL (≈ 0.271 µM)
- MIC at 48 hr (Aspergillus fumigatus [2]; 48 hr): 1 µg/mL (≈ 1.08 µM)
- CLSI QC range (MIC) (Aspergillus fumigatus [3]): 0.5 to 4 µg/mL
- MIC at 24 hr (Candida parapsilosis [4]; 24 hr): 0.12 µg/mL (≈ 0.13 µM)
- MIC at 48 hr (Candida parapsilosis [4]; 48 hr): 0.5 µg/mL (≈ 0.541 µM)
- CLSI QC range (MIC) (Aspergillus fumigatus [5]): (0.5-4)^3 μg/mL
- CLSI QC range (MIC) (Candida parapsilosis [6]; 24 hr): (0.5-2)^3, μg/mL
- CLSI QC range (MIC) (Candida parapsilosis [6]; 48 hr): (0.25-4)^3 μg/mL
- MIC at 24 hr (Aspergillus fumigatus [7]; 24 hr): 0.5, μg/mL
- MIC at 48 hr (Aspergillus fumigatus [7]; 48 hr): 2 µg/mL (≈ 2.16 µM)
- MIC at 24 hr (Candida parapsilosis [8]; 24 hr): 0.5 µg/mL (≈ 0.541 µM)
- MIC at 48 hr (Candida parapsilosis [8]; 48 hr): 1 µg/mL (≈ 1.08 µM)
